Measurements taken from patent US20110306597A1, “Nicotinamide Derivatives” (priority 2008, published 2011).
Structures can show the parent of a compound that is named as a salt.

target: human recombinant H-PGDS (Homo sapiens, UniProt O60760); assay: Slightly modified h-PGDS TBA enzyme assay (Examples 529, 565, 566, 574-588 and 591); type: biochemical; conditions: slightly modified assay (Examples 529, 565, 566, 574-588 and 591); 1:40,000 human recombinant H-PGDS
Method: Prostaglandin D Synthase (PGDS) converts the substrate prostaglandin H2 (PGH2) to prostaglandin D2. The depletion of PGH2 was measured via an Fe(II) reduction of the remaining PGH2 to malondialdehyde (MDA) and 12-HHT. The enzyme assay is based on the quantitative formation of a fluorescent complex from the non-fluorescent compounds MDA and 2-thiobarbituric acid (TBA), substantially as described in U.S. patent application publication US-2004/152148 by Lombardt.
Examples 529, 565, 566, 574-588 and 591 were tested in a slightly modified assay: The enzyme assay (30 μls during biological process) contained 100 mM Trizma pH 8.0, 100 μM MgCl2, 0.1 mg/ml IgG Rabbit serum, 5.0 μM PGH2 (Cayman; ethanol solution, #17020), 2.5 mM L-Glutathione (Sigma; reduced form #G4251), 1:40,000 human recombinant H-PGDS (from 1 mg/ml), 0.5% DMSO and inhibitor (varying concentration). 3 μls of diluted inhibitor (dissolved in DMSO) was plated into a 384-well assay plate followed by a 24 μl addition of an enzyme solution containing h-PGDS, Trizma, MgCl2, IgG and L-Glutathione. After pre-incubation of inhibitor and enzyme solution for 10 minutes at room temperature, the reaction was initiated with a 3 μl addition of substrate solution in 10 mM HCl. The reaction was terminated after 40 second by the addition of 3 μl stop buffer containing FeCl2 and citric acid. After addition of 45 μls of TBA plates were heated for one hour in a 70° C. oven. Plates were cooled at room temperature overnight and read on a plate reader the next day with excitation @ 530 nm and emission @ 560 nm. IC50's of inhibitors were calculated with a 4-parameter fit using 11 inhibitor concentrations in duplicate with ½ log serial dilutions. Controls on each plate included no inhibitor (zero % effect) and an inhibitor 500-fold in excess of its' IC50 (100% effect). The highest inhibitor concentration tested was typically 10 μM.

human recombinant H-PGDS, sequence (O60760 whole entry): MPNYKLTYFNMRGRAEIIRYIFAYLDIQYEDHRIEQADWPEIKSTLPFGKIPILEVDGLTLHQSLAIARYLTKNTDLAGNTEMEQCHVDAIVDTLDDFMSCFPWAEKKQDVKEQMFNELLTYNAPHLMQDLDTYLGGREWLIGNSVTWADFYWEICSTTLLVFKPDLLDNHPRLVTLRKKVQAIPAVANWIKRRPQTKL

SMILES	IC50 [nM]
CC(C)OCCNCCNC(=O)c1ccc(-c2cccc(F)c2)nc1 [Example 583, 6-(3-Fluorophenyl)-N-(2-(2-isopropoxyethylamino)ethyl)nicotinamide]	277
CCCN1[C@@H]2CC[C@H]1C[C@@H](NC(=O)c1ccc(-c3cccc(F)c3)nc1)C2 [Example 585, 6-(3-Fluorophenyl)-N-[(3-endo)-8-propyl-8-azabicyclo[3.2.1]oct-3-yl]nicotinamide]	176
CCNC(=O)c1ccc(-c2cccc(F)c2)nc1 [Example 580, N-Ethyl-6-(3-fluorophenyl)nicotinamide]	222
CC(C)(C)OC(=O)N1[C@@H]2CC[C@H]1C[C@@H](NC(=O)c1ccc(-c3cccc(F)c3)nc1)C2 [Example 586, tert-Butyl (3-endo)-3-({[6-(3-fluorophenyl)pyridin-3-yl]carbonyl}amino)-8-azabicyclo[3.2.1]octane-8-carboxylate]	8.78
CCOCCNC(=O)c1ccc(-c2cc(F)ccc2O)nc1 [Example 566, N-(2-Ethoxyethyl)-6-(5-fluoro-2-hydroxyphenyl)nicotinamide]	349
CC(C)(C)OC(=O)N1[C@@H]2CC[C@H]1C[C@H](NC(=O)c1ccc(-c3cccc(F)c3)nc1)C2 [Example 588, tert-Butyl (3-exo)-3-({[6-(3-fluorophenyl)pyridin-3-yl]carbonyl}amino)-8-azabicyclo[3.2.1]octane-8-carboxylate]	15.4
O=C(N[C@H]1C[C@H]2CC[C@@H](C1)N2)c1ccc(-c2cccc(F)c2)nc1 [Example 584, N-[(3-endo)-8-azabicyclo[3.2.1]oct-3-yl]-6-(3-fluorophenyl)nicotinamide]	196
O=C(N[C@H]1[C@@H]2CN(c3ncccn3)C[C@@H]21)c1ccc(-c2cccc(F)c2)nc1 [Example 529, 6-(3-Fluorophenyl)-N-[(1R,5S,6s)-3-pyrimidin-2-yl-3-azabicyclo[3.1.0]hex-6-yl]nicotinamide]	11.3
CC(=O)N1CCC(CNC(=O)c2ccc(-c3cc(F)ccc3O)nc2)CC1 [Example 565, N-[(1-Acetylpiperidin-4-yl)methyl]-6-(5-fluoro-2-hydroxyphenyl)nicotinamide]	114
CC(C)S(=O)(=O)N1[C@@H]2CC[C@H]1C[C@H](NC(=O)c1ccc(-c3cccc(F)c3)nc1)C2 [Example 591, 6-(3-Fluorophenyl)-N-[(3-exo)-8-(isopropylsulfonyl)-8-azabicyclo[3.2.1]oct-3-yl]nicotinamide]	3.76
O=C(N[C@@H]1C[C@H]2CC[C@@H](C1)N2)c1ccc(-c2cccc(F)c2)nc1 [Example 587, N-[(3-exo)-8-azabicyclo[3.2.1]oct-3-yl]-6-(3-fluorophenyl)nicotinamide]	39.2

Further lines, results first:

IC50 [nM]	SMILES
197	O=C(O)CCNC(=O)c1ccc(-c2cccc(F)c2)nc1 [Example 581, N-{[6-(3-Fluorophenyl)pyridin-3-yl]carbonyl}-beta-alanine]
93.4	CCCNC(=O)c1ccc(-c2cccc(F)c2)nc1 [Example 576, 6-(3-Fluorophenyl)-N-propylnicotinamide]
1200	O=C(NCCN1CCCC1)c1ccc(-c2cccc(F)c2)nc1 [Example 574, 6-(3-Fluorophenyl)-N-(2-pyrrolidin-1-ylethyl)nicotinamide]
34.2	O=C(CCNC(=O)c1ccc(-c2cccc(F)c2)nc1)N[C@H]1CC[C@H](O)CC1 [Example 582, 6-(3-Fuorophenyl)-N-{3-[(trans-4-hydroxycyclohexyl)amino]-3-oxopropyl}nicotinamide]
275	O=C(NCCO)c1ccc(-c2cccc(F)c2)nc1 [Example 577, 6-(3-Fluorophenyl)-N-(2-hydroxyethyl)nicotinamide]
162	O=C(NCCN1CCC(O)CC1)c1ccc(-c2cccc(F)c2)nc1 [Example 575, 6-(3-Fluorophenyl)-N-[2-(4-hydroxypiperidin-1-yl)ethyl]nicotinamide]
758	CNCCNC(=O)c1ccc(-c2cccc(F)c2)nc1 [Example 578, 6-(3-Fluorophenyl)-N-(2-(methylamino)ethyl)nicotinamide hydrochloride]
128	O=C(NCC1CC1)c1ccc(-c2cccc(F)c2)nc1 [Example 579, N-(Cyclopropylmethyl)-6-(3-fluorophenyl)nicotinamide]
